We go through 19 compounds from PMC11990158, “Synthetic Epoxyeicosatrienoic Acid Mimics Protect Mesangial Cells from Sorafenib-Induced Cell Death” (Molecules, 2025).

Usually IC50 stands for the concentration at which inhibition is half-maximal.

One assay addresses T1, human soluble epoxide hydrolase (sEH) (Homo sapiens, UniProt P34913).
T1 sequence (P34913 1-555): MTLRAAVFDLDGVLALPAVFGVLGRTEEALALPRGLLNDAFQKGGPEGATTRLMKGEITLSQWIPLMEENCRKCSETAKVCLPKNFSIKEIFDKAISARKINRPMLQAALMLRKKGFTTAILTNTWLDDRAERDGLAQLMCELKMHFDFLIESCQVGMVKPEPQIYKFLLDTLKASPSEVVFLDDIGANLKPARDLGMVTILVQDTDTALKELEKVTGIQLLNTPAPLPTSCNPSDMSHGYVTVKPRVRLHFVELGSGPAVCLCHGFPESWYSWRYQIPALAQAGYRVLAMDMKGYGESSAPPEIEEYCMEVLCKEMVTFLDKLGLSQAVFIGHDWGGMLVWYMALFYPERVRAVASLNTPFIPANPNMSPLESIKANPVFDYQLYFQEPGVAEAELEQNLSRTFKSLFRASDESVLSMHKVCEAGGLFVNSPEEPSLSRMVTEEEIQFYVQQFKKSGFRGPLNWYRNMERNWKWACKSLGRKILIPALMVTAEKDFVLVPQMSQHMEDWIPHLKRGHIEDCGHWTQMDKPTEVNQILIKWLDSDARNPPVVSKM
Test: not given
The note with it: cited from earlier work.
For `CNC(=O)c1cc(Oc2ccc(NC(=O)Nc3ccc(Cl)c(C(F)(F)F)c3)cc2)ccn1` [Sorafenib], the “sEH inhibition (in words)” value is reported as “potent sEH inhibitor”.

For the next assay, the system named is human renal mesangial cells (HRMCs). Description: WST-8 cell viability assay, protection against sorafenib-induced cell death. It counts as cell-based. Particulars: sorafenib 10 µM alone, 48 h. As for the experimental part: Human renal mesangial cells (4200, ScienCell, Carlsbad, CA, USA) were cultured at 37 °C (in 5% CO2) in RPMI 1640 medium (Gibco™, LS11875093) containing 10% FBS, 100 U/mL of penicillin, and 0.1 mg/mL of streptomycin. The cells were subculture following the protocol of the manufacturer.
WST assay: To evaluate the effect of 8,9-EET analogs and sorafenib on the viability of human renal mesangial cells, a 96-well TPP plate is seeded with cells, which are then allowed to adhere. Over the course of 24 h, they undergo serum starvation before being subject to one of five treatments: Control (no treatment), Sorafenib (10 µM), Sorafenib plus 8,9-EET analogs (1 µM, 3 µM or 10 µM). After 48 h incubation, a WST assay used to gain information on cell survival; we added 10 μL WST reagent per well and incubated for 2 h. WST-8 tetrazolium salt is reduced by cellular dehydrogenases to an orange formazan product that is soluble in tissue culture medium. The amount of formazan produced is directly proportional to the number of living cells and is measured by absorbance at 460 nm. The absorbance at 460 nm is determined using a Synergy 4 Microplate Reader.
Turning to `CNC(=O)c1cc(Oc2ccc(NC(=O)Nc3ccc(Cl)c(C(F)(F)F)c3)cc2)ccn1` [Sorafenib], the “cells dying on sorafenib exposure” value was “around 90%”.

Another assay concerns the target T1, human soluble epoxide hydrolase (sEH). As to the kind of experiment: Human sEH inhibition, fluorescent assay (MNPC substrate). It counts as biochemical.
Details: not given
As for the experimental part: The inhibition potency of the compounds against the recombinant purified human and mouse sEH and human mEH were measured using sensitive fluorescent assays. The enzymes were diluted to the proper buffer and aliquoted in black 96-well plates. The enzymes were incubated with the inhibitors (0.4 < [I] < 50,000 nM) for 5 min at 37 °C before the introduction of the reporting substrate. For the sEH, nonfluorescent cyano(6-methoxy-naphthalen-2-yl)methyl trans-[(3-phenyloxiran-2-yl)methyl] carbonate MNPC was used as the reporting substrate at a final concentration of 5 μM [51]. For the mEH, cyano(6-methoxy-naphthalen-2-yl)methyl glycidyl carbonate (MNGC) was used at a final concentration of 5 µM. The formation of the product (6-methoxynaphthaldehyde) was measured ([…]) every 30 s for 10 min by a Molecular Device M-2 plate reader. All measurements were performed in triplicate. The inhibitory potency (IC50) was calculated by regression of at least four data points on both sides of the 50% mark.
On to `CCCCCCCCCCCNC(=O)C(=O)NCCCCCC(=O)O` [8b, 6-(2-Oxo-2-(undecylamino)acetamido)hexanoic Acid], for which the “sEH inhibition (in words)” value is recorded as “insignificant inhibitor of sEH”.

The same assay, now with this note: recombinant purified human sEH, 5 min preincubation at 37 °C, MNPC 5 µM; read-out: HsEH IC50.
As to `CCCCCCCCCCNC(=O)NCCCCOCC(=O)O` [7a, 2-(4-(3-Decylureido)butoxy)acetic Acid], the IC50 came to 0.83 µM.
On the same count and under the same terms, next, `CCCCCCCCCCCNC(=O)NCCCCOCC(=O)O` [7b, 2-(4-(3-Undecylureido)butoxy)acetic Acid]: 1.8 µM; `CCCCCCCCCCNC(=O)NC/C=C\COCC(=O)O` [7c, (Z)-2-((4-(3-Decylureido)but-2-en-1-yl)oxy)acetic Acid]: 2.1 µM; `CCCCCCCC/C=C\CNC(=O)NCCCCOCC(=O)O` [7e, (Z)-2-(4-(3-(undec-2-en-1-yl)ureido)butoxy)acetic Acid]: 1.6 µM.
In the case of `CCCCCCCC/C=C\CNC(=O)NC/C=C\COCC(=O)O` [7f, 2-(((Z)-4-(3-((Z)-undec-2-en-1-yl)ureido)but-2-en-1-yl)oxy)acetic Acid], the IC50 was 2.6 µM.
`CCCCCCCCCCNC(=O)C(=O)NCCCCCC(=O)O` [8a, 6-(2-(Decylamino)-2-oxoacetamido)hexanoic Acid]: the IC50 is 51 µM.
As for `CCCCCCCCCCCNC(=O)C(=O)NCCCCCC(=O)O` [8b, 6-(2-Oxo-2-(undecylamino)acetamido)hexanoic Acid], the half-maximal inhibitory concentration (IC50) was over 100 µM.
On the same count and under the same terms, under `CCCCCCCCCNC(=O)C(=O)NCCCCCCC(=O)O` [8c, 7-(2-(Nonylamino)-2-oxoacetamido)heptanoic Acid] stands 64 µM; under `CCCCCCCCCCNC(=O)C(=O)NCCCCCCC(=O)O` [8d, 7-(2-(Decylamino)-2-oxoacetamido)heptanoic Acid], 49 µM; under `CCCCCCCC/C=C\CNC(=O)C(=O)NCCCCCC(=O)O` [8e, (Z)-6-(2-Oxo-2-(undec-2-en-1-ylamino)acetamido)hexanoic Acid], 19 µM.
Consider `CCCCCCCCCCCC(=O)NCCCCCC(=O)O` [9a, 6-Dodecanamidohexanoic Acid], for which the concentration for half-maximal inhibition (IC50) was found to be 9.6 µM.
The same measure, in the same setting: under `CCCCCCCCCCCCC(=O)NCCCCCC(=O)O` [9b, 6-Tridecanamidohexanoic Acid] stands 6.4 µM.
In the case of `CCCCCCCCCCCC(=O)NCCCCCCC(=O)O` [9c, 7-Dodecanamidoheptanoic Acid], the IC50 was found to be 2.3 µM.
Same read-out and setting: under `CCCCCCCCCCCCC(=O)NCCCCCCC(=O)O` [9d, 7-Tridecanamidoheptanoic Acid] stands 2.4 µM; under `CCCCCCCCCCCNC(=O)CCCCCCC(=O)O` [10a, 8-Oxo-8-(undecylamino)octanoic Acid], 3.5 µM.
As to `CCCCCCCCCCCCNC(=O)CCCCCCC(=O)O` [10b, 8-(Dodecylamino)-8-oxooctanoic Acid], the 50% inhibitory concentration (IC50) turned out to be 2.7 µM.
On to `CCCCCCCCCCCNC(=O)CCCCCCCC(=O)O` [10c, 9-Oxo-9-(undecylamino)nonanoic Acid], for which the half-inhibitory concentration (IC50) worked out at 0.9 µM.
In the case of `CCCCCCCC/C=C\CNC(=O)CCCCCCCC(=O)O` [10d, (Z)-9-Oxo-9-(undec-2-en-1-ylamino)nonanoic Acid], the IC50 was determined as 0.82 µM.
